Test results: patent US9198915B2, “Methods involving aldose reductase inhibitors” (The Board of Regents of The University of Texas System, priority 2007, dated 2015)

Assays:
[1] = system: TNF-α, NO and PGE2 in aqueous humor; experiment: EIU: TNF-α, NO and PGE2 in aqueous humor (ELISA kits); type: in vivo, rat; settings: 6 and 24 h after EIU-induction
Procedure: (§1) Six to eight-weeks-old male Lewis rats weighing approximately 150-160 g were used in this study (n=6). All animals were kept in the UTMB's Animal Care Center. All the animal studies were conducted in compliance with the ARVO statement for the use of Animals in Ophthalmic and Vision Research. EIU was induced by a subcutaneous injection of Escherichia coli LPS (200 μg) dissolved in phosphate-buffered saline (PBS, pH 7.4). Rats in ART and ETU+ARI groups were injected intraperitoneally with AR inhibitor zopolrestat (25 mg/kg body weight) dissolved in dimethyl-sulfoxide (DMSO) 24 h before and immediately after LPS injection. Rats of control group received carrier (PBS+20% DMSO) injection.
The levels of TNF-α in the AqH (stored at −80° C.) were assessed with commercially available ELISA kit, according to the manufacturer's instructions. The total level of nitrate plus nitrite in the AqH was measured by using a total nitrite colorimetric assay ([…]) kit according to the manufacturer's instructions. PGE2 production was measured by enzyme immunoassay kit following the manufacturer's instructions.

[2] = system: SAEC; experiment: RW-induced apoptosis in SAEC (annexin V/PI flow cytometry); type: cell-based, human; settings: zopolrestat 20 μM, RW 150 μg/ml, 18 h
Procedure: Small Airway Epithelial cells (SAEC) obtained from Cambrex Bio Science Walkersville, Inc. (Walkersville, Md.) contains normal human SAEC from distal airspace of donor. The cells were cultured according to the supplier's instructions at 37° C. in humidified atmosphere containing 95% air and 5% CO2 in small airway epithelial basal medium (SABM) with supplements containing 52 μg/ml bovine pituitary extract, 0.5 ng/ml human recombinant epidermal growth factor (EGF), 0.5 μg/ml epinephrine, 1 μg/ml hydrocortisone, 10 μg/ml transferrin, 5 μg/ml insulin, 0.1 ng/ml retinoic acid (RA), 6.5 ng/ml triiodothyronine, 50 μg/ml Gentamicin/Amphotericin-B (GA-1000), and 50 μg/ml fatty acid-free bovine serum albumin (BSA).
Approximately 2×10^5 SAEC/well were plated in 6-well plates in triplicate for each group. After 24 hours, the medium was replaced with serum-free SABM with or without zopolrestat (20 μM). The cells were induced by RW (150 μg/mL) and incubated for 18 h. Apoptotic cell death was examined using the annexin V-FITC/PI, (molecular probes, Invitrogen) according to the manufacturer's instructions. Twenty thousand events were acquired for each sample and analyzed by flow cytometry using the LYSIS II software (FACScan, BD Pharmingen).

[3] = system: IL-6, IL-8 and Cox-2 mRNA; experiment: RW-induced IL-6, IL-8 and Cox-2 mRNA in SAEC (RT-PCR); type: cell-based, human; settings: RW 50 μg/ml, 6 h
Procedure: The SAECs were grown in 6-well plates at a density of approximately 3.0×10^5 cells/well. After approximately 80% confluence, cells were serum-starved in the presence or absence of sorbinil or zopolrestat (20 μM) for 24 h and then stimulated with 50 μg/ml RW for 6 h. Total RNA from SAECs was isolated by using RNeasy kit (Qiagen) as per supplier's instructions. Aliquots of RNA (0.5-1.0 μg) isolated from each sample were reverse transcribed with Omniscript and Sensiscript reverse transcriptase one-step RT-PCR system with HotStar Taq DNApolymerase (Qiagen) at 55° C. for 30 min followed by PCR amplification. The oligonucleotide primer sequences were as follows: 5′-ATGAACTCCT TCTCCACAAGCGC-3′ (SEQ ID NO:3) (sense) and 5′-[…]-3′ (SEQ TD NO:4) (antisense) for IL-6; 5′-[…]-3′ (SEQ ID NO:5) (sense) and 5′-TCT […]-3′ (SEQ ID NO:6) (antisense) for IL-8; 5 ‘-TGAAACCCACTCCA AACACAG-3’ (SEQ ID NO:7) (sense) and 5′-[…]-3′ (SEQ ID NO:8) (antisense) for Cox-2; and 5′-[…]-3′ (SEQ ID NO:9) (sense) and 5′-CGTC […]-3′ (SEQ ID NO:10) (antisense) for β-actin. PCR was carried out in a PCR Sprint thermal cycler (Thermo electron corporation, Milford, Mass.) under the following conditions: initial denaturation at 95° C. for 15 min followed by 35 cycles of 94° C. 1 min, 62° C. 1 min, 72° C. 1 min, and then 72° C. 10 min for final extension. […]

[4] = system: Lewis rats; experiment: Endotoxin-induced uveitis (EIU): infiltrating cells and total protein in aqueous humor, histopathology; type: in vivo, rat; settings: zopolrestat alone, no LPS
Procedure: as §1
The rats were euthanized after 3, 6, and 24 h after LPS injection and the aqueous humor (AqH) was collected immediately from eye by an anterior chamber puncture using a 30-gauge needle under the surgical microscope. For cell counting, the AqH samples were suspended in an equal amount of Trypan-blue solution, and the cells were counted using a Hemocytometer under a light microscope (Olympus Optical Ltd). The total protein concentration in the AqH samples was measured using a Biorad protein assay kit (Biorad, CA, USA). The AqH samples were stored in ice water until testing, cell counts and total protein concentrations were measured on the day of sample collection. […]

[5] = system: NF-κB; experiment: NF-κB-dependent SEAP reporter assay in RW-treated SAEC; type: cell-based, human
Procedure: The SAEC (1×10^5 cells/well) were plated in 24-well plates, serum-starved in SABM for 24 hours with or without AR inhibitors, sorbinil and zopolrestat (20 μM), and transiently transfected with pNF-κB-secretory alkaline phosphatase (SEAP) construct or control plasmid pTAL-SEAP DNA (Clontech, Palo Alto, Calif.) using the LipofectAMINE Plus reagent. After 6 hours of transfection, medium was replaced with fresh medium and cells were treated with RW (50 μg/mL) for 48 hours. The cell culture medium was harvested, centrifuged and supernatant was analyzed for SEAP activity, essentially as described by the manufacturer (Clontech, Palo Alto, Calif.), using a 96-well chemiluminescence plate reader.

With O=C(O)Cc1nn(Cc2nc3cc(C(F)(F)F)ccc3s2)c(=O)c2ccccc12 [zopolrestat] the “reduction of TNF-α concentration in AqH” value [1] was > 60%, the “prevention of RW-induced cell death” value [2] was > 80% and the “prevention of RW-induced increase of COX-2 mRNA levels” value [3] was > 60%. The “prevention of RW-induced increase of IL-6 and IL-8 mRNA levels” value [3] was > 70%, the “infiltration of cells, H&E sections, compound alone” value [4] was “No significant infiltration of cells” and the inhibition at 20 µM ([5]; Homo sapiens, SAEC, AR inhibitor 20 μM, RW 50 μg/mL 48 hours, read-out: inhibition of RW-induced NF-κB-dependent SEAP activation) was > 60%. The “NF-κB-SEAP activity, compound alone” value ([5]; no RW) was “did not affect”.
